Results reported in patent US20200399238A1, “THERAPEUTIC AURONES” (MIDDLE TENNESSEE STATE UNIVERSITY, priority 2016, published 2020).
Read-outs that look alike come from different tables or passages of the source.

What was measured:
[1] = system: rat skeletal muscle cell line, L6; assay: cells; assay type: cell-based
[2] = system: Trypanosoma brucei brucei 427 cells; assay: T. brucei culture and assay (PrestoBlue); assay type: cell-based
[3] = system: Trypanosoma cruzi Tulahuen cells expressing beta-galactosidase; assay: T. cruzi intracellular assay (beta-galactosidase, L6 host cells); conditions: for IC50: Trypanosoma cruzi, TULAHUEN; for Selectivity L6/TC-I: Table 3A; for Selectivity L6/TC-I / Selectivity L6/Tc-I: estimated from highest L6 dose tested where no L6 IC50; for Selectivity L6/Tc-I: Table 3B
[4] = system: Leishmania amazonensis promastigotes expressing beta-lactamase; assay: microbe, parasite or virus in culture; assay type: cell-based; conditions: for IC50: Leishmania amazonensis, read-out: IC50 L. amaz.
[5] = Rattus norvegicus, Table 1, read-out: IC50 Toxicity (L6)
[6] = Trypanosoma brucei, Table 1, mean of 2(+) independent trials, read-out: IC50 T. brucei
[7] = read-out: IC50 T. cruzi, Table 1, intracellular assay, mean of 2(+) trials (^c one trial)
[8] = read-out: IC50 T. cruzi, Table 2, intracellular assay, mean of 2(+) independent trials
[9] = Rattus norvegicus, Table 3A, weighted means of two or more independent trials, read-out: IC50 L6
[10] = Table 2, mean of 2(+) independent trials, read-out: IC50 T. brucei
[11] = read-out: IC50 TC-I, Table 3A, weighted means of two or more independent trials
[12] = Table 2, L6 IC50 / L. amazonensis IC50
[13] = Rattus norvegicus, Table 3B, weighted means of two or more independent trials, read-out: IC50 L6
[14] = read-out: IC50 TC-I, Table 3B, weighted means of two or more independent trials
[15] = Table 2, L6 mammalian cells, read-out: IC50 Toxicity (L6)
[16] = Table 1, intracellular T. cruzi IC50
[17] = Table 2, L6 IC50 / T. cruzi IC50 (intracellular assay)
[18] = Table 2, L6 IC50 / T. brucei IC50
[19] = Table 3B, estimated from highest L6 dose tested where no L6 IC50

| Structure (SMILES) | melting point | IC50 [1, 5] | IC50 [2, 6] | IC50 [3, 7] | IC50 [4] | Selectivity L6/La ([4]; Table 1) | IC50 [3, 8] | Selectivity L6/La [4, 12] | IC50 [1, 13] | IC50 [3, 14] | other results |
| --- | --- | --- | --- | --- | --- | --- | --- | --- | --- | --- | --- |
| COc1cccc(/C=C2\Oc3ccc(C)cc3C2=O)c1O [Aurone 4003, (Z)-2-(2-hydroxy-3-methoxybenzylidene)-5-methylbenzofuran-3(2H)-one] | 134 to 137 °C | > 100 µM | 27.7 µM | > 50 µM | 13.4 µM | >7.45 |  |  |  |  | Selectivity L6/Tb ([2]; Table 1): >3.61 |
| COc1ccc2c(c1)O/C(=C\c1ccc(C#N)cc1)C2=O [Aurone 5006, (Z)-4-((6-methoxy-3-oxobenzofuran-2(3H)-ylidene)methyl)benzonitrile] | 180 to 181 °C | 213 µM | 30.3 µM | > 50 µM | 4.79 µM |  | > 50 µM |  |  |  |  |
| O=C1/C(=C/c2ccccc2C(F)(F)F)Oc2ccccc21 [Aurone 9086, (Z)-2-(2-(trifluoromethyl)benzylidene)benzofuran-3(2H)-one] | 118 to 123 °C | 130 µM | 37.6 µM | 18.5 µM | 1.9 µM |  | 18.5 µM |  |  |  |  |
| CCCCc1ccc(/C=C2\Oc3ccccc3C2=O)cc1 [Aurone 3009, (Z)-2-(4-butylbenzylidene)benzofuran-3(2H)-one] | 80 to 81 °C | 35 µM | > 50 µM | > 50 µM | 2.36 µM | 14.84 | > 50 µM | 14.84 |  |  | IC50 [1, 9]: 35 µM; IC50 [2, 10]: > 50 µM; Selectivity L6/TC-I [3]: 4.38; IC50 [3, 11]: 7.99 µM |
| O=C1/C(=C/c2cc(Br)c(Br)s2)Oc2ccccc21 [Aurone 9050, (Z)-2-((4,5-dibromothiophen-2-yl)methylene)benzofuran-3(2H)-one] | 185 to 190 °C | > 100 µM | > 50 µM | > 50 µM | 9.24 µM |  | > 50 µM |  | > 100 µM | > 50 µM |  |
| O=C1/C(=C/c2ccc(O)cc2)Oc2ccccc21 [Aurone 9068, (Z)-2-(4-hydroxybenzylidene)benzofuran-3(2H)-one] | 258 to 260 °C | > 200 µM | > 50 µM | > 50 µM | 1.57 µM |  | > 50 µM |  |  |  |  |
| O=C1/C(=C/c2ccc(I)cc2)Oc2ccccc21 [Aurone 9029, (Z)-2-(4-iodobenzylidene)benzofuran-3(2H)-one] | 176 to 179 °C | > 100 µM | > 50 µM | 11.1 µM | 3.11 µM | >32.15 | 11.1 µM | >32.15 |  |  | IC50 [1, 9]: > 100 µM; IC50 [1, 15]: > 100 µM; IC50 [2, 10]: > 50 µM; Selectivity L6/Tc [3, 16]: >9.04; Selectivity L6/Tc [3, 17]: >9.04; Selectivity L6/TC-I [3]: >9.04; IC50 [3, 11]: 11.1 µM |
| O=C1/C(=C/c2cccs2)Oc2cc(O)ccc21 [Aurone 2901, (Z)-6-hydroxy-2-(thiophen-2-ylmethylene)benzofuran-3(2H)-one] | 300 to 303 °C | > 100 µM | > 50 µM | > 50 µM | 19.4 µM |  |  |  |  |  |  |
| N#Cc1cccc(/C=C2\Oc3ccccc3C2=O)c1 [Aurone 9070, (Z)-3-((3-oxobenzofuran-2(3H)-ylidene)methyl)benzonitrile] | 175 to 177 °C | > 200 µM | 34.7 µM | 16.7 µM | < 1 µM |  | 16.7 µM |  |  |  |  |
| O=C1/C(=C/c2cc(Br)ccc2Br)Oc2ccccc21 [Aurone 3003, (Z)-2-(2,5-dibromobenzylidene)benzofuran-3(2H)-one] | 181 to 182 °C | > 100 µM | > 50 µM | > 50 µM | 16 µM | >6.24 |  |  |  |  | IC50 [1, 9]: > 100 µM; IC50 [3, 11]: > 50 µM |
| COc1ccc2c(c1)O/C(=C\c1ccc(C)cc1)C2=O [Aurone 5002, (Z)-6-methoxy-2-(4-methylbenzylidene)benzofuran-3(2H)-one] | 115 to 122 °C | 183 µM | 40.7 µM | > 50 µM | 10.5 µM |  | > 50 µM |  |  |  |  |
| O=C1/C(=C/c2ccoc2)Oc2ccccc21 [Aurone 3005, (Z)-2-(furan-3-ylmethylene)benzofuran-3(2H)-one] | 111 to 112 °C | > 100 µM | 41.9 µM | 7.47 µM | 42.7 µM | >2.34 | 7.47 µM | >2.34 | > 100 µM | 7.47 µM | IC50 [1, 15]: > 100 µM; Selectivity L6/Tb ([2]; Table 1): >2.39; Selectivity L6/Tb [2, 18]: >2.39; Selectivity L6/Tb [2, 19]: >2.39; Selectivity L6/Tc [3, 16]: >13.39; Selectivity L6/Tc [3, 17]: >13.39; Selectivity L6/Tc-I [3]: >13.39 |
| CC(C)(C)c1ccc(/C=C2\Oc3ccccc3C2=O)cc1 [Aurone 3008, (Z)-2-(4-(tert-butyl)benzylidene)benzofuran-3(2H)-one] | 87 to 90 °C | 99.3 µM | > 50 µM | > 50 µM | 3.57 µM | 27.81 | > 50 µM | 27.81 |  |  | IC50 [1, 9]: 99.3 µM; IC50 [2, 10]: > 50 µM; Selectivity L6/TC-I [3]: 7.94; IC50 [3, 11]: 12.5 µM |
| CC(=O)Nc1ccc(/C=C2\Oc3ccccc3C2=O)cc1 [Aurone 3006, (Z)-N-(4-((3-oxobenzofuran-2(3H)-ylidene)methyl)phenyl)acetamide] | 260 to 270 °C | > 100 µM | > 50 µM | > 50 µM | 12.5 µM | >7.99 |  |  |  |  | IC50 ([1]; Rattus norvegicus, Table 3C, weighted means of two or more independent trials, read-out: IC50 L6): > 100 µM; IC50 ([3]; read-out: IC50 TC-I, Table 3C, intracellular T. cruzi, weighted means of two or more independent trials): > 50 µM |
| O=C1/C(=C/c2ccc(CO)o2)Oc2ccccc21 [Aurone 9067, (Z)-2-((5-(hydroxymethyl)furan-2-yl)methylene)benzofuran-3(2H)-one] | 61 to 63 °C | 31.1 µM | 34.9 µM | 12.5 µM | < 1 µM |  | 12.5 µM |  | 31.1 µM | 12.5 µM | IC50 ([1]; Rattus norvegicus, read-out: toxicity in L6): 31.1 µM; IC50 ([3]; read-out: T. cruzi IC50 dose): 12.5 µM |
| COc1ccc2c(c1)O/C(=C\c1cccs1)C2=O [Aurone 5001, (Z)-6-methoxy-2-(thiophen-2-ylmethylene)benzofuran-3(2H)-one] | 99 to 103 °C | > 100 µM | > 50 µM | > 50 µM | 21.1 µM | >4.73 |  |  |  |  |  |
| O=C1/C(=C/c2ccccn2)Oc2ccccc21 [Aurone 9051, (Z)-2-(pyridin-2-ylmethylene)benzofuran-3(2H)-one] | 119 to 121 °C | 79.6 µM | 23.2 µM | 19.4 µM | 6.26 µM |  | 19.4 µM |  | 79.6 µM | 19.4 µM | IC50 ([2]; Trypanosoma brucei, read-out: T. brucei IC50 dose): 23.2 µM |
| O=C1/C(=C/c2cc3ccccc3o2)Oc2ccccc21 [Aurone 3002, (Z)-2-(benzofuran-2-ylmethylene)benzofuran-3(2H)-one] | 145 to 150 °C | > 100 µM | 20.2 µM | 6.44 µM | 6.48 µM | >15.43 | 6.44 µM | >15.43 | > 100 µM | 6.44 µM | IC50 [1, 15]: > 100 µM; Selectivity L6/Tb ([2]; Table 1): >4.96; Selectivity L6/Tb [2, 18]: >4.96; Selectivity L6/Tb [2, 19]: >4.96; Selectivity L6/Tc [3, 16]: >15.53; Selectivity L6/Tc [3, 17]: >15.53; Selectivity L6/Tc-I [3]: >15.53 |
| O=C1/C(=C/c2ccc(Br)cn2)Oc2ccccc21 [Aurone 3011, (Z)-2-((5-bromopyridin-2-yl)methylene)benzofuran-3(2H)-one] | 192 to 193 °C | > 100 µM | > 50 µM | 32.9 µM | 2.61 µM | >38.31 | 32.9 µM | >38.31 | > 100 µM | 32.9 µM | IC50 [1, 15]: > 100 µM; IC50 [2, 10]: > 50 µM; Selectivity L6/Tc [3, 16]: >3.04; Selectivity L6/Tc [3, 17]: >3.04; Selectivity L6/Tc-I [3]: >3.04 |
| O=C1/C(=C/c2ccc(Br)s2)Oc2ccccc21 [Aurone 9058, (Z)-2-((5-bromothiophen-2-yl)methylene)benzofuran-3(2H)-one] | 155 to 158 °C | 79.3 µM | > 50 µM | 34.8 µM | 2.73 µM | 29.05 | 34.8 µM | 29.05 | 79.3 µM | 34.8 µM | IC50 [2, 10]: > 50 µM; Selectivity L6/Tc [3, 16]: 2.28; Selectivity L6/Tc [3, 17]: 2.28; Selectivity L6/Tc-I [3]: 2.28 |
